According to patent US6525001B1, “Substituted pyrimidine and pyridine herbicides” (Mid-American Commercialization Corporation, priority 1997, dated 2003):

What was measured:
Assay in all cases: Test B pre-/postemergence
Assay type in all cases: in vivo
Parameters in all cases: key: 0 is no effect; 10 is complete control
[1] = system: wheat (Triticum aestivum)
In short: (§1)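 Response scores run from 0, meaning no effect, to 10, meaning complete control, assigned by eye relative to controls twelve to sixteen days after spraying. Treatment was both preemergence on planted seed and postemergence on plants at the 1- to 4-leaf stage.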

[2] = system: blackgrass (Alopecurus myosuroides)
In short: as §1

[3] = system: pigweed (Amaranthus retroflexus)
In short: as §1

[4] = system: crabgrass (Digitaria sanguinalis)
In short: as §1

[5] = system: purple nutsedge (Cyperus rotundus)
In short: as §1

[6] = system: cocklebur (Xanthium strumarium)
In short: as §1

corn (Zea mays) = system: corn (Zea mays)
In short: as §1

[7] = system: broadleaf signalgrass (Brachiaria decumbens)
In short: as §1

[8] = system: giant foxtail (Setaria faberii)
In short: as §1

wild oat (Avena fatua) = system: wild oat (Avena fatua)
In short: as §1

[9] = system: bedstraw (Galium aparine)
In short: as §1

[10] = system: momingglory (Ipomoea hederacea)
In short: as §1

[11] = system: sugar beet (Beta vulgaris)
In short: as §1

[12] = system: velvetleaf (Abutilon theophrasti)
In short: as §1

Cc1cnc(-c2ccc(OC(F)(F)F)cc2)nc1Cc1cccc(C(F)(F)F)c1 [Compound 16]
Plant response rating, Wheat ([1]; Rate 62 g/ha, Postemergence): 0 | Wheat plant response rating ([1]; Rate 62 g/ha, Preemergence): 0 | Plant response rating, Wheat ([1]; Rate 125 g/ha, Postemergence): 0 | Wheat plant response rating ([1]; Rate 125 g/ha, Preemergence): 0 | Plant response rating, Wheat ([1]; Rate 250 g/ha, Postemergence): 0 | Plant response rating, Wheat ([1]; Rate 250 g/ha, Preemergence): 0 | Plant response rating, Wheat ([1]; Rate 500 g/ha, Postemergence): 1 | Plant response rating, Wheat ([1]; Rate 500 g/ha, Preemergence): 0 | Plant response rating, Blackgrass ([2]; Rate 62 g/ha, Postemergence): 1 | Blackgrass plant response rating ([2]; Rate 62 g/ha, Preemergence): 0 | Plant response rating, Blackgrass ([2]; Rate 125 g/ha, Postemergence): 1 | Blackgrass plant response rating ([2]; Rate 125 g/ha, Preemergence): 0 | Plant response rating, Blackgrass ([2]; Rate 250 g/ha, Postemergence): 2 | Plant response rating, Blackgrass ([2]; Rate 250 g/ha, Preemergence): 2 | Plant response rating, Blackgrass ([2]; Rate 500 g/ha, Postemergence): 3 | Plant response rating, Blackgrass ([2]; Rate 500 g/ha, Preemergence): 4 | Plant response rating, Redroot pigweed ([3]; Rate 62 g/ha, Postemergence): 5 | Redroot pigweed plant response rating ([3]; Rate 62 g/ha, Preemergence): 0 | Plant response rating, Redroot pigweed ([3]; Rate 125 g/ha, Postemergence): 6 | Redroot pigweed plant response rating ([3]; Rate 125 g/ha, Preemergence): 0 | Plant response rating, Redroot pigweed ([3]; Rate 250 g/ha, Postemergence): 8 | Plant response rating, Redroot pigweed ([3]; Rate 250 g/ha, Preemergence): 8 | Plant response rating, Redroot pigweed ([3]; Rate 500 g/ha, Postemergence): 9 | Plant response rating, Redroot pigweed ([3]; Rate 500 g/ha, Preemergence): 8 | Plant response rating, Crabgrass ([4]; Rate 62 g/ha, Postemergence): 2 | Crabgrass plant response rating ([4]; Rate 62 g/ha, Preemergence): 0 | Plant response rating, Crabgrass ([4]; Rate 125 g/ha, Postemergence): 2 | Crabgrass plant response rating ([4]; Rate 125 g/ha, Preemergence): 0 | Plant response rating, Crabgrass ([4]; Rate 250 g/ha, Postemergence): 2 | Plant response rating, Crabgrass ([4]; Rate 250 g/ha, Preemergence): 2 | Plant response rating, Crabgrass ([4]; Rate 500 g/ha, Postemergence): 7 | Plant response rating, Crabgrass ([4]; Rate 500 g/ha, Preemergence): 8 | Plant response rating, Nutsedge ([5]; Rate 62 g/ha, Postemergence): 0 | Nutsedge plant response rating ([5]; Rate 62 g/ha, Preemergence): 0 | Plant response rating, Nutsedge ([5]; Rate 125 g/ha, Postemergence): 0 | Nutsedge plant response rating ([5]; Rate 125 g/ha, Preemergence): 0 | Plant response rating, Nutsedge ([5]; Rate 250 g/ha, Postemergence): 0 | Plant response rating, Nutsedge ([5]; Rate 250 g/ha, Preemergence): 0 | Plant response rating, Nutsedge ([5]; Rate 500 g/ha, Postemergence): 1 | Plant response rating, Nutsedge ([5]; Rate 500 g/ha, Preemergence): 0 | Plant response rating, Cocklebur ([6]; Rate 62 g/ha, Postemergence): 4 | Cocklebur plant response rating ([6]; Rate 62 g/ha, Preemergence): 0 | Plant response rating, Cocklebur ([6]; Rate 125 g/ha, Postemergence): 4 | Cocklebur plant response rating ([6]; Rate 125 g/ha, Preemergence): 0 | Plant response rating, Cocklebur ([6]; Rate 250 g/ha, Postemergence): 5 | Plant response rating, Cocklebur ([6]; Rate 250 g/ha, Preemergence): 0 | Plant response rating, Cocklebur ([6]; Rate 500 g/ha, Postemergence): 6 | Plant response rating, Cocklebur ([6]; Rate 500 g/ha, Preemergence): 0 | Plant response rating, Corn (corn (Zea mays); Rate 62 g/ha, Postemergence): 1 | Corn plant response rating (corn (Zea mays); Rate 62 g/ha, Preemergence): 0 | Plant response rating, Corn (corn (Zea mays); Rate 125 g/ha, Postemergence): 1 | Corn plant response rating (corn (Zea mays); Rate 125 g/ha, Preemergence): 0 | Plant response rating, Corn (corn (Zea mays); Rate 250 g/ha, Postemergence): 1 | Plant response rating, Corn (corn (Zea mays); Rate 250 g/ha, Preemergence): 0 | Plant response rating, Corn (corn (Zea mays); Rate 500 g/ha, Postemergence): 1 | Plant response rating, Corn (corn (Zea mays); Rate 500 g/ha, Preemergence): 0 | Plant response rating, B. signalgrass ([7]; Rate 62 g/ha, Postemergence): 1 | B. signalgrass plant response rating ([7]; Rate 62 g/ha, Preemergence): 0 | Plant response rating, B. signalgrass ([7]; Rate 125 g/ha, Postemergence): 1 | B. signalgrass plant response rating ([7]; Rate 125 g/ha, Preemergence): 2 | Plant response rating, B. signalgrass ([7]; Rate 250 g/ha, Postemergence): 1 | Plant response rating, B. signalgrass ([7]; Rate 250 g/ha, Preemergence): 3 | Plant response rating, B. signalgrass ([7]; Rate 500 g/ha, Postemergence): 1 | Plant response rating, B. signalgrass ([7]; Rate 500 g/ha, Preemergence): 7 | Plant response rating, Giant foxtail ([8]; Rate 62 g/ha, Postemergence): 1 | Giant foxtail plant response rating ([8]; Rate 62 g/ha, Preemergence): 0 | Plant response rating, Giant foxtail ([8]; Rate 125 g/ha, Postemergence): 1 | Giant foxtail plant response rating ([8]; Rate 125 g/ha, Preemergence): 3 | Plant response rating, Giant foxtail ([8]; Rate 250 g/ha, Postemergence): 1 | Plant response rating, Giant foxtail ([8]; Rate 250 g/ha, Preemergence): 7 | Plant response rating, Giant foxtail ([8]; Rate 500 g/ha, Postemergence): 3 | Plant response rating, Giant foxtail ([8]; Rate 500 g/ha, Preemergence): 8 | Plant response rating, Wild oats (wild oat (Avena fatua); Rate 62 g/ha, Postemergence): 0 | Wild oats plant response rating (wild oat (Avena fatua); Rate 62 g/ha, Preemergence): 0 | Plant response rating, Wild oats (wild oat (Avena fatua); Rate 125 g/ha, Postemergence): 0 | Wild oats plant response rating (wild oat (Avena fatua); Rate 125 g/ha, Preemergence): 1 | Plant response rating, Wild oats (wild oat (Avena fatua); Rate 250 g/ha, Postemergence): 1 | Plant response rating, Wild oats (wild oat (Avena fatua); Rate 250 g/ha, Preemergence): 2 | Plant response rating, Wild oats (wild oat (Avena fatua); Rate 500 g/ha, Postemergence): 1 | Plant response rating, Wild oats (wild oat (Avena fatua); Rate 500 g/ha, Preemergence): 3 | Plant response rating, Bedstraw ([9]; Rate 62 g/ha, Postemergence): 3 | Bedstraw plant response rating ([9]; Rate 62 g/ha, Preemergence): 0 | Plant response rating, Bedstraw ([9]; Rate 125 g/ha, Postemergence): 4 | Bedstraw plant response rating ([9]; Rate 125 g/ha, Preemergence): 0 | Plant response rating, Bedstraw ([9]; Rate 250 g/ha, Postemergence): 4 | Plant response rating, Bedstraw ([9]; Rate 250 g/ha, Preemergence): 0 | Plant response rating, Bedstraw ([9]; Rate 500 g/ha, Postemergence): 5 | Plant response rating, Bedstraw ([9]; Rate 500 g/ha, Preemergence): 1 | Morningglory plant response rating ([10]; Rate 62 g/ha, Preemergence): 0 | Plant response rating, Morningglory ([10]; Rate 125 g/ha, Postemergence): 1 | Morningglory plant response rating ([10]; Rate 125 g/ha, Preemergence): 0 | Plant response rating, Morningglory ([10]; Rate 250 g/ha, Postemergence): 1 | Plant response rating, Morningglory ([10]; Rate 250 g/ha, Preemergence): 0 | Plant response rating, Morningglory ([10]; Rate 500 g/ha, Postemergence): 1 | Plant response rating, Morningglory ([10]; Rate 500 g/ha, Preemergence): 1 | Plant response rating, Sugarbeets ([11]; Rate 62 g/ha, Postemergence): 8 | Sugarbeets plant response rating ([11]; Rate 62 g/ha, Preemergence): 0 | Plant response rating, Sugarbeets ([11]; Rate 125 g/ha, Postemergence): 8 | Sugarbeets plant response rating ([11]; Rate 125 g/ha, Preemergence): 1 | Plant response rating, Sugarbeets ([11]; Rate 250 g/ha, Postemergence): 9 | Plant response rating, Sugarbeets ([11]; Rate 250 g/ha, Preemergence): 7 | Plant response rating, Sugarbeets ([11]; Rate 500 g/ha, Postemergence): 9 | Plant response rating, Sugarbeets ([11]; Rate 500 g/ha, Preemergence): 9 | Plant response rating, Velvetleaf ([12]; Rate 62 g/ha, Postemergence): 1 | Velvetleaf plant response rating ([12]; Rate 62 g/ha, Preemergence): 0 | Plant response rating, Velvetleaf ([12]; Rate 125 g/ha, Postemergence): 2 | Velvetleaf plant response rating ([12]; Rate 125 g/ha, Preemergence): 0 | Plant response rating, Velvetleaf ([12]; Rate 250 g/ha, Postemergence): 2 | Plant response rating, Velvetleaf ([12]; Rate 250 g/ha, Preemergence): 1 | Plant response rating, Velvetleaf ([12]; Rate 500 g/ha, Postemergence): 2 | Plant response rating, Velvetleaf ([12]; Rate 500 g/ha, Preemergence): 1
